Read-outs that look alike come from different tables or passages of the source.
Tests used:
[1] = biological target: T1, AURKA (Homo sapiens, UniProt O14965); type: cell-based
T1 construct: endogenous in cells; host or cells: Jurkat cells
T1 sequence (O14965 1-403): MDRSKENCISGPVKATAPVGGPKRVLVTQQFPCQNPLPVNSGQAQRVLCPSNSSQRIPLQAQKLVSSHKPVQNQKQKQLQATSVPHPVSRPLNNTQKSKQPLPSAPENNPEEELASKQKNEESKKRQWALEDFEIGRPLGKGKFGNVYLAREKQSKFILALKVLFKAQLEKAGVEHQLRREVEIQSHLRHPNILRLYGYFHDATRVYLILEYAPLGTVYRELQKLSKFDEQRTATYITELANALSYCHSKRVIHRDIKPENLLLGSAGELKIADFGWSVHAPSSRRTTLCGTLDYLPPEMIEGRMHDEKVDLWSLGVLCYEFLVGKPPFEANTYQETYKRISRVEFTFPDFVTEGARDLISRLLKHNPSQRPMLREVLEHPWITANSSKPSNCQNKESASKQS
Procedure, shortened: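 AURKA degradation read by western blot: band signal, fluorescent or chemiluminescent, curve-fitted to derive DC50. Cells were Jurkat, plated at 1×10^6 cells/500 µL with compound, then lysed and blotted onto nitrocellulose, primary antibody overnight at 4°C.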

[2] = tested on: H82 cells; assay: cells; type: cell-based; conditions: Homo sapiens
Procedure: CellTiter-Glo (CTG) is a rapid cell viability test method based on ATP detection. […] Adenosine triphosphate (ATP) participates in various enzymatic reactions in organisms and is an indicator of living cell metabolism. Its content directly reflects the number of living cells and cell status. During the experiment, equal volume of CTG reagent is added to the cultured cells to measure the luminescence value. The chemiluminescent signal value is proportional to the amount of ATP, thus reflecting the number of viable cells. Therefore, cell viability can be obtained by detecting the ATP content. Compounds that affect cell viability will inhibit cell viability in a concentration-dependent manner, allowing a curve to be fitted to obtain the IC50 value.
The experimental procedure is as follows: • 11. Place the cell suspension in a 15 mL centrifuge tube, centrifuge at 1000 rpm for 5 min at room temperature, discard the supernatant, and collect the cell pellet. • 12. Resuspend the cell pellet with preheated complete cell culture medium (RPMI1640+10%FBS+1%PS), and use a Countess® automated cell counter to detect cell viability and density. […] Transfer the compound solution to a 96-well plate seeded with cells (final concentration of DMSO 0.1%), and place in a cell incubator at 37°C, 5% CO2 for 6 days. • 15. […] Protect from light during the whole process. Perform optical signal readings using a SpectraMax i3x reader. • 16. Data analysis: Remaining activity (%) = 100% * (1 - ((LumDMSO - Lummedium) - Lumsample) / (LumDMSO - LumPBS/medium)). Use GraphPad Prism 9.0 software to draw an S-shaped dose-survival rate curve and calculate the IC50 value using a nonlinear regression model.

[3] = 100 nM compound, Jurkat cells, 24 h, Table 2
[4] = 1 µM compound, Jurkat cells, 24 h, Table 2
[5] = NCI-H82, H82 cells, 4000 cells/well, CellTiter-Glo, read-out: IC50 in H82 Cells

Compound | Percentage of AURKA Degradation Induced by 100 nM Compound in Jurkat Cells [1, 3] | Percentage of AURKA Degradation Induced by 1 µM Compound in Jurkat Cells [1, 4] | IC50 [2, 5] | Percentage of AURKA Degradation Induced by 100 nM Compound in Jurkat Cells [1] | Percentage of AURKA Degradation Induced by 1 µM Compound in Jurkat Cells [1] | IC50 ([2]; NCI-H82, read-out: IC50 in H82 Cells)
CN(CCN1CCN(c2ncc(N3CCC(=O)NC3=O)s2)CC1)C(=O)c1ccc(Nc2ncc3c(n2)-c2ccc(C4CC4)cc2C(c2c(F)cccc2F)=NC3)cc1 [Compound A135] | +++ (Degradation > 70%) | ++ (30% < Degradation ≤ 70%) | < 1000 nM | – | – | –
CN(CCN1CCN(c2ccc(N3CCC(=O)NC3=O)cc2)CC1)C(=O)c1ccc(Nc2ncc3c(n2)-c2ccc(C4CC4)cc2C(c2c(F)cccc2F)=NC3)cc1 [Compound A136] | +++ (Degradation > 70%) | +++ (Degradation > 70%) | < 1000 nM | – | – | –
COc1ccccc1C1=NCc2cnc(Nc3ccc(C(=O)NC4CC5(CCN(c6ccc(N7CCC(=O)NC7=O)cn6)CC5)C4)cc3)nc2-c2ccncc21 [Compound A137] | +++ (Degradation > 70%) | +++ (Degradation > 70%) | < 1000 nM | – | – | –
O=C1CCN(c2ccc(N3CCC4(CC3)CC(NC(=O)c3ccc(Nc5ncc6c(n5)-c5ccncc5C(c5ccccc5F)=NC6)cc3)C4)nc2)C(=O)N1 [Compound A138] | +++ (Degradation > 70%) | +++ (Degradation > 70%) | 1000 to 10000 nM | – | – | –
O=C1CCN(c2cccc(N3CC(CN4CCN(c5cccc(Nc6ncc7c(n6)-c6ccc(Cl)cc6C(c6c(F)cccc6F)=NC7)c5)CC4)C3)c2)C(=O)N1 [Compound A140] | +++ (Degradation > 70%) | +++ (Degradation > 70%) | < 1000 nM | – | – | –
O=C1CCN(c2cccc(N3CCN(CC4CN(c5cccc(Nc6ncc7c(n6)-c6ccc(Cl)cc6C(c6c(F)cccc6F)=NC7)c5)C4)CC3)c2)C(=O)N1 [Compound A141] | +++ (Degradation > 70%) | +++ (Degradation > 70%) | < 1000 nM | – | – | –
O=C1CCN(c2ccc(N3CCC4(CC3)CC(NC(=O)c3ccc(Nc5ncc6c(n5)-c5ccc(C7CC7)cc5C(c5ccccc5Cl)=NC6)cc3)C4)nc2)C(=O)N1 [Compound A142] | +++ (Degradation > 70%) | +++ (Degradation > 70%) | < 1000 nM | – | – | –
O=C1CCN(c2cccc(N3CCC(CN4CC(c5cccc(Nc6ncc7c(n6)-c6ccc(Cl)cc6C(c6c(F)cccc6F)=NC7)c5)C4)CC3)c2)C(=O)N1 [Compound A143] | +++ (Degradation > 70%) | +++ (Degradation > 70%) | < 1000 nM | – | – | –
O=C1CCN(c2cccc(C3CCN(CCOc4cccc(Nc5ncc6c(n5)-c5ccc(Cl)cc5C(c5c(F)cccc5F)=NC6)c4)C3)c2)C(=O)N1 (stereo not drawn) [Compound A144] | + (Degradation ≤ 30%) | + (Degradation ≤ 30%) | < 1000 nM | – | – | –
O=C1CCN(c2cccc(N3CCN(Cc4cccc(Nc5ncc6c(n5)-c5ccc(Cl)cc5C(c5c(F)cccc5F)=NC6)c4)CC3)c2)C(=O)N1 [Compound A146] | ++ (30% < Degradation ≤ 70%) | + (Degradation ≤ 30%) | < 1000 nM | – | – | –
O=C1CCN(c2cccc(N3CCN(CCc4cccc(Nc5ncc6c(n5)-c5ccc(Cl)cc5C(c5c(F)cccc5F)=NC6)c4)CC3)c2)C(=O)N1 [Compound A147] | +++ (Degradation > 70%) | +++ (Degradation > 70%) | < 1000 nM | – | – | –
O=C1CCN(c2cccc(N3CCN(CCOc4cccc(Nc5ncc6c(n5)-c5ccc(C7CC7)cc5C(c5c(F)cccc5F)=NC6)c4)CC3)c2)C(=O)N1 [Compound A148] | +++ (Degradation > 70%) | +++ (Degradation > 70%) | < 1000 nM | – | – | –
Cn1c(CN2CCN(c3ncc(N4CCC(=O)NC4=O)s3)CC2)cnc1-c1ccc(Nc2ncc3c(n2)-c2ccc(Cl)cc2C(c2c(F)cccc2F)=NC3)cc1 [Compound A149] | +++ (Degradation > 70%) | +++ (Degradation > 70%) | < 1000 nM | – | – | –
O=C1CCN(c2cccc(N3CCC(N4CC(c5cccc(Nc6ncc7c(n6)-c6ccc(Cl)cc6C(c6c(F)cccc6F)=NC7)c5)C4)CC3)c2)C(=O)N1 [Compound A151] | ++ (30% < Degradation ≤ 70%) | + (Degradation ≤ 30%) | < 1000 nM | – | – | –
Cc1c(N2CCN(CCc3cccc(Nc4ncc5c(n4)-c4ccc(Cl)cc4C(c4c(F)cccc4F)=NC5)c3)CC2)cccc1N1CCC(=O)NC1=O [Compound A155] | ++ (30% < Degradation ≤ 70%) | ++ (30% < Degradation ≤ 70%) | < 1000 nM | – | – | –
Cc1c(N2CC(C#Cc3cccc(Nc4ncc5c(n4)-c4ccc(Cl)cc4C(c4c(F)cccc4F)=NC5)c3)C2)cccc1N1CCC(=O)NC1=O [Compound A156] | – | – | – | + (key: +: Degradation ≤ 30%; ++: 30% < Degradation ≤ 70%; +++: Degradation > 70%) | + (key: +: Degradation ≤ 30%; ++: 30% < Degradation ≤ 70%; +++: Degradation > 70%) | 1000 to 10000 nM
O=C1CCN(c2cnc(N3CCN(CCN4Cc5cc(Nc6ncc7c(n6)-c6ccc(Cl)cc6C(c6c(F)cccc6F)=NC7)ccc5C4=O)CC3)s2)C(=O)N1 [Compound A157] | ++ (30% < Degradation ≤ 70%) | + (Degradation ≤ 30%) | < 1000 nM | – | – | –
O=C1CCN(c2ccc(N3CCN(CCN4Cc5cc(Nc6ncc7c(n6)-c6ccc(Cl)cc6C(c6c(F)cccc6F)=NC7)ccc5C4=O)CC3)cc2)C(=O)N1 [Compound A158] | ++ (30% < Degradation ≤ 70%) | + (Degradation ≤ 30%) | < 1000 nM | – | – | –
O=C1CCN(c2cccc(N3CCN(C4CN(c5cccc(Nc6ncc7c(n6)-c6ccc(Cl)cc6C(c6c(F)cccc6F)=NC7)c5)C4)CC3)c2)C(=O)N1 [Compound A164] | ++ (30% < Degradation ≤ 70%) | +++ (Degradation > 70%) | < 1000 nM | – | – | –
O=C1CCN(c2ccc(N3CCC(N4CCN(c5ccc(Nc6ncc7c(n6)-c6ccc(Cl)cc6C(c6c(F)cccc6F)=NC7)cc5)C(=O)C4)C3)nc2)C(=O)N1 (stereo not drawn) [Compound A166] | +++ (Degradation > 70%) | ++ (30% < Degradation ≤ 70%) | < 1000 nM | – | – | –
O=C1CCN(c2ccc(N3CCC4(CC3)CC(NC(=O)c3ccc(Nc5ncc6c(n5)-c5ccc(OC7CC7)cc5C(c5c(F)cccc5F)=NC6)cc3)C4)nc2)C(=O)N1 [Compound A168] | +++ (Degradation > 70%) | +++ (Degradation > 70%) | < 1000 nM | – | – | –

Reference: EP4818168A1, “FUSED RING COMPOUND, PHARMACEUTICAL COMPOSITION THEREOF AND USE THEREOF” (priority 2023, dated 2025)
